Results taken from US10597388B2, “Pyridazinone herbicides” (FMC CORPORATION, priority 2014, dated 2020).

Tests used:
Assay in all cases: Test D controlled growth environment herbicide test, pre- and postemergence
Type in all cases: in vivo
[1] = test system: bromegrass, downy (downy bromegrass, Bromus tectorum)
In short: (§1)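 Rating is visual, 0–100 scale (100 = complete control), made against untreated plants 14–21 d after treatment in controlled growth conditions. Postemergence sprays went onto 1- to 4-leaf plants in peat medium; preemergence sprays onto silt loam after sowing; formulation included a surfactant.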

[2] = test system: wheat, spring (spring wheat, Triticum aestivum)
In short: as §1

[3] = test system: deadnettle (henbit deadnettle, Lamium amplexicaule)
In short: as §1

[4] = test system: mustard, wild (wild mustard, Sinapis arvensis)
In short: as §1

[5] = test system: oilseed rape (Brassica napus)
In short: as §1

[6] = test system: speedwell (bird's-eye speedwell, Veronica persica)
In short: as §1

[7] = test system: windgrass (Apera spica-venti)
In short: as §1

[8] = test system: barley, spring (spring barley, Hordeum vulgare)
In short: as §1

[9] = test system: chamomile (scentless chamomile, Matricaria inodora)
In short: as §1

[10] = test system: oat, wild (wild oat, Avena fatua)
In short: as §1

[11] = test system: lambsquarters (Chenopodium album)
In short: as §1

[12] = test system: radish, wild (wild radish, Raphanus raphanistrum)
In short: as §1

[13] = test system: field violet (Viola arvensis)
In short: as §1

[14] = Postemergence, 31 g ai/ha, scale 0 to 100 (0 no effect, 100 complete control)
[15] = Postemergence, 125 g ai/ha, visual rating on scale 0 (no effect) to 100 (complete control), 14 to 21 d
[16] = Postemergence, 250 g ai/ha, scale 0 to 100 (0 no effect, 100 complete control)
[17] = Preemergence, 62 g ai/ha, scale 0 to 100 (0 no effect, 100 complete control)
[18] = Preemergence, 125 g ai/ha, scale 0 to 100 (0 no effect, 100 complete control)
[19] = Preemergence, 250 g ai/ha, scale 0 to 100 (0 no effect, 100 complete control)
[20] = postemergence, 62 g ai/ha, scale 0 to 100, 0 no effect, 100 complete control

Cc1cc(C)c2sc(C)c(-c3c(OC(=O)OC(C)C)c(C)nn(C)c3=O)c2c1 [Compound 67]
Bromegrass, Downy plant response rating [1, 14]: 60
Plant response rating, Bromegrass, Downy [1, 15]: 65
Plant response rating, Bromegrass, Downy [1, 16]: 70
Plant response rating (scale of 0 to 100), Bromegrass, Downy ([1]; Preemergence, 31 g ai/ha): 25
Plant response rating, Bromegrass, Downy [1, 17]: 35
Plant response rating, Bromegrass, Downy [1, 18]: 35
Plant response rating, Bromegrass, Downy [1, 19]: 70
Plant response rating, Bromegrass, Downy [1, 20]: 60
Wheat, Spring plant response rating [2, 14]: 0
Plant response rating, Wheat, Spring [2, 15]: 0
Plant response rating, Wheat, Spring [2, 16]: 5
Plant response rating (scale of 0 to 100), Wheat, Spring ([2]; Preemergence, 31 g ai/ha): 0
Plant response rating, Wheat, Spring [2, 17]: 0
Plant response rating, Wheat, Spring [2, 18]: 0
Plant response rating, Wheat, Spring [2, 19]: 10
Plant response rating, Wheat, Spring [2, 20]: 0
Deadnettle plant response rating [3, 14]: 40
Plant response rating, Deadnettle [3, 15]: 40
Plant response rating, Deadnettle [3, 16]: 60
Plant response rating (scale of 0 to 100), Deadnettle ([3]; Preemergence, 31 g ai/ha): 15
Plant response rating, Deadnettle [3, 17]: 30
Plant response rating, Deadnettle [3, 18]: 55
Plant response rating, Deadnettle [3, 19]: 60
Plant response rating, Deadnettle [3, 20]: 30
Mustard, Wild plant response rating [4, 14]: 25
Plant response rating, Mustard, Wild [4, 15]: 40
Plant response rating, Mustard, Wild [4, 16]: 65
Plant response rating (scale of 0 to 100), Mustard, Wild ([4]; Preemergence, 31 g ai/ha): 0
Plant response rating, Mustard, Wild [4, 17]: 0
Plant response rating, Mustard, Wild [4, 18]: 0
Plant response rating, Mustard, Wild [4, 19]: 0
Plant response rating, Mustard, Wild [4, 20]: 35
Oilseed Rape plant response rating [5, 14]: 70
Plant response rating, Oilseed Rape [5, 15]: 85
Plant response rating, Oilseed Rape [5, 16]: 90
Plant response rating (scale of 0 to 100), Oilseed Rape ([5]; Preemergence, 31 g ai/ha): 10
Plant response rating, Oilseed Rape [5, 17]: 20
Plant response rating, Oilseed Rape [5, 18]: 25
Plant response rating, Oilseed Rape [5, 19]: 25
Plant response rating, Oilseed Rape [5, 20]: 80
Speedwell plant response rating [6, 14]: 70
Plant response rating, Speedwell [6, 15]: 75
Plant response rating, Speedwell [6, 16]: 100
Plant response rating (scale of 0 to 100), Speedwell ([6]; Preemergence, 31 g ai/ha): 80
Plant response rating, Speedwell [6, 17]: 75
Plant response rating, Speedwell [6, 18]: 100
Plant response rating, Speedwell [6, 19]: 100
Plant response rating, Speedwell [6, 20]: 75
Windgrass plant response rating [7, 14]: 85
Plant response rating, Windgrass [7, 15]: 90
Plant response rating, Windgrass [7, 16]: 90
Plant response rating (scale of 0 to 100), Windgrass ([7]; Preemergence, 31 g ai/ha): 30
Plant response rating, Windgrass [7, 17]: 75
Plant response rating, Windgrass [7, 18]: 80
Plant response rating, Windgrass [7, 19]: 95
Plant response rating, Windgrass [7, 20]: 85
Barley, Spring plant response rating [8, 14]: 0
Plant response rating, Barley, Spring [8, 15]: 10
Plant response rating, Barley, Spring [8, 16]: 20
Plant response rating (scale of 0 to 100), Barley, Spring ([8]; Preemergence, 31 g ai/ha): 0
Plant response rating, Barley, Spring [8, 17]: 0
Plant response rating, Barley, Spring [8, 18]: 0
Plant response rating, Barley, Spring [8, 19]: 0
Plant response rating, Barley, Spring [8, 20]: 5
Chamomile plant response rating [9, 14]: 95
Plant response rating, Chamomile [9, 15]: 100
Plant response rating, Chamomile [9, 16]: 100
Plant response rating (scale of 0 to 100), Chamomile ([9]; Preemergence, 31 g ai/ha): 95
Plant response rating, Chamomile [9, 17]: 95
Plant response rating, Chamomile [9, 18]: 100
Plant response rating, Chamomile [9, 19]: 100
Plant response rating, Chamomile [9, 20]: 100
Oat, Wild plant response rating [10, 14]: 95
Plant response rating, Oat, Wild [10, 15]: 100
Plant response rating, Oat, Wild [10, 16]: 100
Plant response rating (scale of 0 to 100), Oat, Wild ([10]; Preemergence, 31 g ai/ha): 70
Plant response rating, Oat, Wild [10, 17]: 75
Plant response rating, Oat, Wild [10, 18]: 80
Plant response rating, Oat, Wild [10, 19]: 90
Plant response rating, Oat, Wild [10, 20]: 98
Lambsquarters plant response rating [11, 14]: 90
Plant response rating, Lambsquarters [11, 15]: 100
Plant response rating, Lambsquarters [11, 16]: 100
Plant response rating (scale of 0 to 100), Lambsquarters ([11]; Preemergence, 31 g ai/ha): 95
Plant response rating, Lambsquarters [11, 17]: 100
Plant response rating, Lambsquarters [11, 18]: 100
Plant response rating, Lambsquarters [11, 19]: 100
Plant response rating, Lambsquarters [11, 20]: 100
Radish, Wild plant response rating [12, 14]: 55
Plant response rating, Radish, Wild [12, 15]: 70
Plant response rating, Radish, Wild [12, 16]: 95
Plant response rating (scale of 0 to 100), Radish, Wild ([12]; Preemergence, 31 g ai/ha): 25
Plant response rating, Radish, Wild [12, 17]: 60
Plant response rating, Radish, Wild [12, 18]: 75
Plant response rating, Radish, Wild [12, 19]: 95
Plant response rating, Radish, Wild [12, 20]: 65
Field Violet plant response rating [13, 14]: 80
Plant response rating, Field Violet [13, 15]: 90
Plant response rating, Field Violet [13, 16]: 95
Plant response rating (scale of 0 to 100), Field Violet ([13]; Preemergence, 31 g ai/ha): 85
Plant response rating, Field Violet [13, 17]: 98
Plant response rating, Field Violet [13, 18]: 100
Plant response rating, Field Violet [13, 19]: 100
Plant response rating, Field Violet [13, 20]: 80
